From patent US20010033854A1, “Anti-microbial compositions” (priority 2000, published 2001)
Read-outs that look alike come from different tables or passages of the source.

Columns and labels:
[1] = test system: Staphlococcus epidermidis; assay: Growth inhibition of a relevant micro-organism by chelator; format: cell-based; conditions: chelator at 3×10^−6 mol.dm^−3 or less
From the text: Inhibition is considered significant when growth of the relevant micro-organism on a supporting medium can be reduced by at least 30% preferably by at least 45%.

[2] = test system: relevant micro-organism; conditions: cited from earlier work

Structure (SMILES) | Significant inhibition of growth (reduced by at least 30%) [1] | other results
O=C(O)CN(CC(=O)O)[C@@H]1CCCC[C@H]1N(CC(=O)O)CC(=O)O (relative stereo) [CDTA, trans-1,2-diaminocyclohexane-N,N,N′,N′-tetraacetic acid] | exclude | –
O=C(O)CN(CCN(CC(=O)O)CC(=O)O)CCN(CC(=O)O)CC(=O)O [DTPA, diethylenetriaminepentaacetic acid] | capable of achieving significant inhibition | –
O=C(O)CN(CCN(CC(=O)O)CC(=O)O)CC(=O)O [EDTA, ethylenediaminetetraacetic acid] | exclude | –
O=C(O)CN(CCN(CCN(CC(=O)O)CC(=O)O)CC(=O)O)CCN(CC(=O)O)CC(=O)O [TTHA, triethylenetetraaminehexaacetic acid] | capable of achieving significant inhibition | –
CCO [ethanol] | – | MIC ([2]; ethanol and similar alkanols): greater than 1 mg.ml^−1
CC(C)=CCCC(C)=CCCC(C)=CCO [farnesol, 3,7,11-trimethyldodeca-2,6,10-trienol] | – | MIC ([2]; literature values): ca. 25 μg.ml^−1
Oc1cc(Cl)ccc1Oc1ccc(Cl)cc1Cl [triclosan, 2′,4,4′-trichloro-2′-hydroxydiphenyl ether] | – | MIC ([2]; literature values): 0.01 to 10 µg/mL
